Measured values published in ChEMBL document CHEMBL1201862, “PubChem BioAssay data set” (2004).
Active and inactive are the calls of the source.

Key:
[1] = T. cruzi growth inhibition in host cells, dose response, cell-based, plate reader, dry powder, set 2 (AID 652275); type: functional
[2] = target: T1, Fatty acid synthase (Homo sapiens, UniProt P49327); experiment: inhibition of human FAS-TE enzyme activity – biochemical, endpoint fluorescence intensity, uHTS hits, dose response (AID 624327); type: functional;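 also: fluorescence from hydrolysis of an O-methyl fluorescein acyl ester substrate by the enzyme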
[3] = target: T1, Fatty acid synthase; experiment: inhibition of human FAS-TE enzyme activity – biochemical, kinetic fluorescence intensity, dose response (AID 624326); type: functional;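 also: rate of fluorescence rise from hydrolysis of a fluorogenic O-methyl fluorescein ester substrate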
[4] = target: Disintegrin and metalloproteinase domain-containing protein 17 (Homo sapiens, UniProt P78536); experiment: exosite inhibitors of ADAM17, dose response, biochemical (AID 743260)
[5] = target: T2, Endoribonuclease toxin MazF (Escherichia coli K-12, UniProt P0AE70); experiment: activation of MazEF endoribonuclease cleavage – biochemical, fluorescence, single-stranded RNA substrate, uHTS hits, dose response (AID 588481); type: functional
T2 sequence (P0AE70 whole entry): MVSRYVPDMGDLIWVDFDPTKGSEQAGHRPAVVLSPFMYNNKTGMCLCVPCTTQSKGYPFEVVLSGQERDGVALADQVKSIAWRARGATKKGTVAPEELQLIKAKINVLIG

[6] = target: T2, Endoribonuclease toxin MazF; experiment: substrate-only fluorescence increase artefacts – biochemical, single-stranded RNase substrate, counter-screen for MazEF activator project, dose response (AID 588502); type: functional
[7] = inhibition of ADAM10 peptide cleavage – biochemical, FRET peptide substrate, recombinant human ADAM10, selectivity assay for ADAM17 exosite inhibitor project, dose response (AID 743259);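 also: ADAM10 enzyme cleaving a FRET peptide substrate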
[8] = target: Paired box protein Pax-8 (Homo sapiens, UniProt Q06710); experiment: PAX8 transcriptional activity inhibition in RMG-I – RMG-I cells, luciferase, cherry-pick, dose response (AID 687027); type: functional, cell-based;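 also: luciferase reporter driven by Pax8 target thyroperoxidase promoter measured by SteadyGlo luminescence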
[9] = A2780 cell killing – plate reader, dry powder samples, cytotoxicity control, dose response (AID 743046); type: functional, cell-based
[10] = OVCAR-3 cell viability loss – plate reader, dry powder samples, PAX8 inhibitor project, dose response (AID 743044); type: functional, cell-based
[11] = OVCAR8 cell viability loss – plate reader, dry powder samples, PAX8 project, dose response (AID 743197); type: functional, cell-based; conditions: OVCAR-8
[12] = tested on: Streptococcus sp. 'group A'; experiment: Streptococcus pyogenes SK(-)GAS viability under kanamycin – luminescence, BacTiterGlo, confirmation, counter-screen for streptokinase expression inhibitor project, dose response (AID 1900); type: functional, organism-based
[13] = tested on: BJ; experiment: BJ-TERT fibroblast viability loss – cell-based, RAS-independent, luminescence, dose response (AID 1933); type: functional; conditions: Homo sapiens
[14] = tested on: BJ; experiment: cells; type: functional, cell-based; conditions: Homo sapiens
[15] = tested on: BJ; experiment: BJ-TERT-LT-ST fibroblast viability loss – cell-based, RAS-independent, luminescence, dose response (AID 1935); type: functional; conditions: Homo sapiens;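 also: BJ fibroblasts immortalized with TERT plus LT and ST oncogenes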
[16] = DRD fibroblast viability loss – cell-based, non-viral oncogenic, luminescence, dose response (AID 1934); type: functional; conditions: Homo sapiens
[17] = tested on: Streptococcus; experiment: GAS UMAA2166 growth inhibition – luminescence, BacTiterGlo, counter-screen for streptokinase expression inhibitor project, dose response (AID 1915); type: functional, organism-based;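 also: potency for reduction of bacterial viability or growth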
[18] = tested on: BJ; experiment: growth inhibition of engineered Ras-driven BJ cells – cell-based, alamar blue fluorescence, cherrypicked samples, dose response (AID 2631); type: functional; conditions: Homo sapiens;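 also: confirmatory dose-response assay in RAS-dependent BJ fibroblasts engineered with TERT, LT and ST, with cytotoxicity read by fluorescence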
[19] = luciferase reporter signal suppression in cells – H4 neuroglioma cells, luminescence, dose response (AID 1990); type: functional, cell-based
[20] = Luminescence Cell-Based Dose Response HTS to Identify Inhibitors of 5'UTR Stem-Loop Driven Prion Protein mRNA Translation in H4 Neuroglioblastoma Cells. [Related pubchem assays: 1827 (Project Summary), 1813 (Primary HTS)]; type: functional
[21] = alpha-synuclein stem-loop luciferase translation blockers – H4 neuroglioma cells, luminescence, confirmation (AID 1988); type: functional, cell-based
[22] = HGIII-sPLA2 enzyme inhibition potency – biochemical, QFRET, IC50, dose response (AID 743457);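 also: green fluorescence rise as the enzyme cleaves BODIPY PC-A2 in liposomes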
[23] = tested on: HEK293; experiment: inhibition of NOD1-driven NF-kB reporter – cell-based, luminescence, uHTS, primary screen (AID 1578); type: functional; conditions: Homo sapiens
[24] = tested on: HEK293; experiment: cells; type: functional, cell-based; conditions: Homo sapiens
[25] = tested on: HEK293; experiment: cells; type: functional, cell-based; conditions: Homo sapiens; remark: listed apart in the source
[26] = target: Nucleotide-binding oligomerization domain-containing protein 2 (Homo sapiens, UniProt Q9HC29); experiment: inhibition of NOD2-driven NF-kB reporter – cell-based, luminescence, uHTS, HEK293 (AID 1566); type: functional
[27] = tested on: HEK293; experiment: NOD2 signaling inhibitors in MDP-stimulated cells, cell-based, uHTS, luminescence (AID 2001); type: functional; conditions: Homo sapiens
[28] = tested on: HEK293; experiment: cells; type: functional, cell-based; conditions: Homo sapiens; remark: listed apart in the source
[29] = tested on: Vero; experiment: cells; type: functional; conditions: Chlorocebus sabaeus
[30] = target: T3, Carboxy-terminal domain RNA polymerase II polypeptide A small phosphatase 1 (Homo sapiens, UniProt Q9GZU7); experiment: CTDSP1 inhibitors, concentration-response, biochemical, absorbance readout, ultra-high-throughput screen actives (AID 540297); type: functional
T3 sequence (Q9GZU7 whole entry): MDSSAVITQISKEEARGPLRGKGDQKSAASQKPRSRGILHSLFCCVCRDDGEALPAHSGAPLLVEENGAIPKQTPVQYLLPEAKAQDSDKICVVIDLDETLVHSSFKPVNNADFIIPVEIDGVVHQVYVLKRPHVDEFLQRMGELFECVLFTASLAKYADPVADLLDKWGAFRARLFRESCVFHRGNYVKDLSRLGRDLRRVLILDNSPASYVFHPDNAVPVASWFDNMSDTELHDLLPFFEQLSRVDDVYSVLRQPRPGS

T1 sequence (P49327 whole entry): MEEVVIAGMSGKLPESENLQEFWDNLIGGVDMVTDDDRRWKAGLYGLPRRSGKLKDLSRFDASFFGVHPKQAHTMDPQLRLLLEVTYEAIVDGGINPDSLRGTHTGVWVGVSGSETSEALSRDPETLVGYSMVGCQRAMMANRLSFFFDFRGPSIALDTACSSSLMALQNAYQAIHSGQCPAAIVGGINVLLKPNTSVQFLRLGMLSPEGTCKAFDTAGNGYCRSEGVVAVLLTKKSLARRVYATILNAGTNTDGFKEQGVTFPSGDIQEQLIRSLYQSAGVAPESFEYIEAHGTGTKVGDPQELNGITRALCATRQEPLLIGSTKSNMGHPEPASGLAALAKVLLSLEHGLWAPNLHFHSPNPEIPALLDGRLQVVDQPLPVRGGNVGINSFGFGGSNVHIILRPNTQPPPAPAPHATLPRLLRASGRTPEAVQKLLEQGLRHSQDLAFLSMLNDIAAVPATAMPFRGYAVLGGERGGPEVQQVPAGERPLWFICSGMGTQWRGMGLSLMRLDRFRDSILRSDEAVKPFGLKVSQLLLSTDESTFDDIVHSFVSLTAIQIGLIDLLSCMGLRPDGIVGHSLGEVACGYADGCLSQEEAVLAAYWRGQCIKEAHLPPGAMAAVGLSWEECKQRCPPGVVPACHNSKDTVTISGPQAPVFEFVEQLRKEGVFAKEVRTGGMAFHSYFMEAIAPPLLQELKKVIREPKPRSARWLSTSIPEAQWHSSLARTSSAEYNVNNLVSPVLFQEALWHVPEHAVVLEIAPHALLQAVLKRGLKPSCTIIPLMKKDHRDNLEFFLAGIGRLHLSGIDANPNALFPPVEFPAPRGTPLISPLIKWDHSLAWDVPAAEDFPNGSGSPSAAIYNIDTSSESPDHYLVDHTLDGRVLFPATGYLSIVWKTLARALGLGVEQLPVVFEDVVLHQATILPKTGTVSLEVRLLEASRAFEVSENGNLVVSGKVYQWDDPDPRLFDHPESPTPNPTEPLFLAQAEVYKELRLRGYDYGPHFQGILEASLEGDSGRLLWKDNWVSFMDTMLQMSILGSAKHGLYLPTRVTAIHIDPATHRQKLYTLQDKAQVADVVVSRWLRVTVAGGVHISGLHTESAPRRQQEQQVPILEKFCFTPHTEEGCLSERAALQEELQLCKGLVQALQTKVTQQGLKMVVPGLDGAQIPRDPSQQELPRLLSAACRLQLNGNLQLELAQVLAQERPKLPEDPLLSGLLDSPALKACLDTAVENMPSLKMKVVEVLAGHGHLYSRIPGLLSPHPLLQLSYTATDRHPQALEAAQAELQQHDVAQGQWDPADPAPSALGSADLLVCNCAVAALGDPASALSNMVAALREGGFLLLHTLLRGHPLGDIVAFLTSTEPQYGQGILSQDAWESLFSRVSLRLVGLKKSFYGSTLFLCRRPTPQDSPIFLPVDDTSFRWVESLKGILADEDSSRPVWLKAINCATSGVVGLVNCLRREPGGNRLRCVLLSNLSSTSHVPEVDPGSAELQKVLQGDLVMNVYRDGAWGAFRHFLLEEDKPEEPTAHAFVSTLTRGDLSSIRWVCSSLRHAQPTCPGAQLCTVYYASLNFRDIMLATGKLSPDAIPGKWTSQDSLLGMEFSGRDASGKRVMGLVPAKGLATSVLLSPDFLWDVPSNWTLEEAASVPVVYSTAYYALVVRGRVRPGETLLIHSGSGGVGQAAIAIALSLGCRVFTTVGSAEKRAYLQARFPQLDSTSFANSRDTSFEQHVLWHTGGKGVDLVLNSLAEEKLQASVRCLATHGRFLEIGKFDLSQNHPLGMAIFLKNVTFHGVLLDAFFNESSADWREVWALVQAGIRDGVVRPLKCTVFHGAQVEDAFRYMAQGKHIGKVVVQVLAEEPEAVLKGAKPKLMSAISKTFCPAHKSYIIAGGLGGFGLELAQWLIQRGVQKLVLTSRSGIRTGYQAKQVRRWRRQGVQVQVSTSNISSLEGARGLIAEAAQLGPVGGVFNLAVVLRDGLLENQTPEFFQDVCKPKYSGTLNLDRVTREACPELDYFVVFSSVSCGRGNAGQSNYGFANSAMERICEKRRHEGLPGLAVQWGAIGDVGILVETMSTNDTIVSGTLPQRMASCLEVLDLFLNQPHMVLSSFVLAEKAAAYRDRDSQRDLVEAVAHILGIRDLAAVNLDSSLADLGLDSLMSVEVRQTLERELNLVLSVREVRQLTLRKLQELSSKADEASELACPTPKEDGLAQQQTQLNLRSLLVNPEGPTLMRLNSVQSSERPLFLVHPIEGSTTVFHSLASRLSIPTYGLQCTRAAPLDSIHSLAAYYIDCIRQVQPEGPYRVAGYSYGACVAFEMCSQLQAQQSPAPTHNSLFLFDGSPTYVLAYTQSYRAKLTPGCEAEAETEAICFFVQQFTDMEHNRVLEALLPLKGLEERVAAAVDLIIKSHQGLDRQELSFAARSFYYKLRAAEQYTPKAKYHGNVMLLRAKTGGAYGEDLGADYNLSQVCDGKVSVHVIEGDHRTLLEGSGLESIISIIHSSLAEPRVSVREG
Sequence of Paired box protein Pax-8 (Q06710 whole entry): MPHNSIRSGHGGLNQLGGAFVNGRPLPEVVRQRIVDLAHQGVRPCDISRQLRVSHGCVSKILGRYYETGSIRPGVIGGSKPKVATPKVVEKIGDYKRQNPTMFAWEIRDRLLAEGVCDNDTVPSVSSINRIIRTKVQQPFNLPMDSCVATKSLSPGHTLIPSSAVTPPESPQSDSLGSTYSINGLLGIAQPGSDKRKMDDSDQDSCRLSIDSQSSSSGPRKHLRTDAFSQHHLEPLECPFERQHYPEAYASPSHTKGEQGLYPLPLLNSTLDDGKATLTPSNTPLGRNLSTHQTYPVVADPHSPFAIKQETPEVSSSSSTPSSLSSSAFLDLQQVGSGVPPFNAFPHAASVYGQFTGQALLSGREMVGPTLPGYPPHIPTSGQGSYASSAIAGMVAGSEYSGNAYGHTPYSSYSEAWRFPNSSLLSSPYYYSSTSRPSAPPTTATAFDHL
Sequence of Nucleotide-binding oligomerization domain-containing protein 2 (Q9HC29 whole entry, the tested form may be a part): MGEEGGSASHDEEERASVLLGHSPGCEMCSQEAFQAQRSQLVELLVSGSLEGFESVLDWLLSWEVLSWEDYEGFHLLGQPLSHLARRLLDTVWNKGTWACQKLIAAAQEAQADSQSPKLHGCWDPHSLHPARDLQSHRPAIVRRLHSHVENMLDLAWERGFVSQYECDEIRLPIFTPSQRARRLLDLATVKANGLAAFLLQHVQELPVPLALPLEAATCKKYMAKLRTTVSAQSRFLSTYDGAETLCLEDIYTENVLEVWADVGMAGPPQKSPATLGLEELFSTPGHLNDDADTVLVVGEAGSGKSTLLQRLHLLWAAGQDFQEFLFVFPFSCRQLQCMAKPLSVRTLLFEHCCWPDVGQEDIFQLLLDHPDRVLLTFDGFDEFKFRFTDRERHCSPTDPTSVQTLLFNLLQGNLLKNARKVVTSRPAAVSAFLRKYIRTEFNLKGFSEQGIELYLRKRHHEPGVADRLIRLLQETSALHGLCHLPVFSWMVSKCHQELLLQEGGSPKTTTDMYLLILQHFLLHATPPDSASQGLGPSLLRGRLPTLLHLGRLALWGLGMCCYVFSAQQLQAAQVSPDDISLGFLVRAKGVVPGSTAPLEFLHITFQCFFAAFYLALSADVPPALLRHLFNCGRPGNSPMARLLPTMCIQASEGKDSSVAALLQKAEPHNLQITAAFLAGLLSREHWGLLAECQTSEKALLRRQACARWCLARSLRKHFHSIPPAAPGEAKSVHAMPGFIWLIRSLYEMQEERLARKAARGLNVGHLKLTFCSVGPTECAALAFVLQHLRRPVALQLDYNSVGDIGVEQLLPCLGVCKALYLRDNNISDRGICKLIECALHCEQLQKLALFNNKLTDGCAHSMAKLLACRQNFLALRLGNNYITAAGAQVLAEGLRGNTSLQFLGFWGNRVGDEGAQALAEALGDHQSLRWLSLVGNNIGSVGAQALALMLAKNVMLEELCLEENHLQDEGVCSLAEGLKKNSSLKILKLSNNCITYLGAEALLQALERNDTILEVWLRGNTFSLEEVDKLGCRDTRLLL
Sequence of Disintegrin and metalloproteinase domain-containing protein 17 (P78536 whole entry, the tested form may be a part): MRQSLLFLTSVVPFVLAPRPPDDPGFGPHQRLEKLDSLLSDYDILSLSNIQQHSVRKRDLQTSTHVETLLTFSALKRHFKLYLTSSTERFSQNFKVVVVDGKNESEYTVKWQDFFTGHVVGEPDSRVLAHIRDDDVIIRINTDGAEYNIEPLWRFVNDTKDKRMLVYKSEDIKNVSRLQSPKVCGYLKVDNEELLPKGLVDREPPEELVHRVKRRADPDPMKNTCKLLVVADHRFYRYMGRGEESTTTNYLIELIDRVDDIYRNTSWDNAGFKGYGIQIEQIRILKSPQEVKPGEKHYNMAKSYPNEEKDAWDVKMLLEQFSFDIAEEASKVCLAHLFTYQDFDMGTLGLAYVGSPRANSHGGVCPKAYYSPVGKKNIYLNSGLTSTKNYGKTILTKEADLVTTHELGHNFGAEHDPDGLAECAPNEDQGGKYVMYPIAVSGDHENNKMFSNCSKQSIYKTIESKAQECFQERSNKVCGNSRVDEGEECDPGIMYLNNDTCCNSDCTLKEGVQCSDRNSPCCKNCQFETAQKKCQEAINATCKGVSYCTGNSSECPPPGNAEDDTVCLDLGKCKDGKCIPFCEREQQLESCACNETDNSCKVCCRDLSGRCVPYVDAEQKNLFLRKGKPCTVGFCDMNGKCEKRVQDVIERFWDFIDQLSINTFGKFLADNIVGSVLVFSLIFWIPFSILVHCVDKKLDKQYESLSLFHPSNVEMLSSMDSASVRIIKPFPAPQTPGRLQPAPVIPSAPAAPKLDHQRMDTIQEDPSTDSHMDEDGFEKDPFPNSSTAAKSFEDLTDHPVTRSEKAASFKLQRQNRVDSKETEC

COC[C@H](C)N1C[C@H](C)[C@@H](CN(C)Cc2ccc(Oc3ccccc3)cc2)Oc2c(NC(=O)c3ccncc3)cccc2C1=O
AC50 [1]: 0.00119 µM (active)

Cc1cccc(NS(=O)(=O)c2ccc3[nH]c(=O)cc(C(=O)OC(C)C(=O)Nc4ccc([N+](=O)[O-])cc4)c3c2)c1 (stereo not given)
IC50 [2]: 1.51 µM (active) | IC50 [3]: 3.66 µM (active) | IC50 [4]: > 69.5 µM (inactive)

O=C(Nc1cccc2ccccc12)N1CC=C(c2ccccc2)CC1
EC50 [5]: 53.7 µM (inactive) | EC50 [6]: > 99 µM (inactive)

Cc1cccc(NS(=O)(=O)c2ccc3nc(O)cc(C(=O)OC(C)C(=O)Nc4ccc([N+](=O)[O-])cc4)c3c2)c1 (stereo not given)
IC50 [7]: > 69.5 µM (inactive)

C[C@@H]1CN([C@H](C)CO)C(=O)c2cc(NC(=O)Nc3ccc(C(F)(F)F)cc3)ccc2O[C@@H](C)CCCCO[C@@H]1CN(C)Cc1ccc(Cl)c(Cl)c1
AC50 [8]: 5 µM (active) | AC50 [9]: 39.1 µM (active) | AC50 [10]: 20.7 µM (active) | AC50 [11]: 29.1 µM (active)

Cc1cccc(NC2=NC(N)=NC(C)(C)N2)c1
EC50 [12]: < 0.06 µM (active) | EC50 [13]: > 150 µM (not active) | EC50 [14]: 1.26 µM (inconclusive) | EC50 [15]: > 150 µM (not active) | EC50 [16]: 1.48 µM (active) | EC50 [17]: 0.478 µM (active) | EC50 [18]: > 133 µM (inactive)

CC(C)[C@]12O[C@H]1[C@@H]1O[C@]13[C@]1(O[C@H]1C[C@H]1C4=C(CC[C@@]13C)C(=O)OC4)[C@@H]2O [TRIPTOLIDE]
EC50 [19]: < 0.1 µM (active) | EC50 [20]: < 0.1 µM (active) | EC50 [21]: < 0.1 µM (active) | EC50 [18]: < 0.104 µM (active)

Cc1cccc(NC(S)=NNC(=O)c2csc(C)c2)c1
IC50 [22]: > 122 µM (inactive)

COc1cc(/C=C/c2ccc3cccc(O)c3n2)cc(Cl)c1OC
EC50 [23]: 3.66 µM (active) | EC50 [13]: 23.4 µM (active) | IC50 [24]: 9.42 µM (active) | EC50 [14]: 44.9 µM (active) | IC50 [25]: > 20 µM (inactive) | EC50 [26]: > 20 µM (inactive) | IC50 [27]: 4.22 µM (inactive) | IC50 [28]: > 20 µM (inactive) | EC50 [15]: > 150 µM (not active) | EC50 [16]: 19.1 µM (active) | CC50 [29]: 11.6 µM (active)

CC1CN(C2=CC(=[N+]3CCOCC3)CC(C)(C)C2)CC(C)O1 (stereo not given)
IC50 [30]: 1.83 µM (active)
